How the values were obtained:
Format in all cases: cell-based, human
[1] = test system: MCF7; test: NCI60 antitumor screening; conditions: 10 μM one-dose
[2] = test system: OVCAR-8; test: NCI60 antitumor screening; conditions: 10 μM one-dose
[3] = test system: UO-31; test: NCI60 antitumor screening; conditions: 10 μM one-dose
[4] = test system: EKVX; test: NCI60 antitumor screening; conditions: 10 μM one-dose
[5] = test system: KM12; test: NCI60 antitumor screening; conditions: 10 μM one-dose
[6] = test system: SNB-75; test: NCI60 antitumor screening; conditions: 10 μM one-dose, Table 1
[7] = test system: NCI-H23; test: NCI60 antitumor screening; conditions: 10 μM one-dose
[8] = test system: COLO 205; test: NCI60 antitumor screening; conditions: 10 μM one-dose
[9] = test system: HS 578T; test: NCI60 antitumor screening; conditions: 10 μM one-dose
[10] = test system: NCI60 cell lines panel; test: NCI60 antitumor screening, full panel; conditions: 10 μM one-dose, mean over NCI60
In short: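 Single-concentration screen at 10 μM across the NCI60 panel (leukaemia, NSCLC, colon, CNS, melanoma, ovarian, renal, prostate, breast). Results are expressed as percent growth inhibition (GI%) of treated lines.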

[11] = test system: HCC-2998; test: NCI60 antitumor screening; conditions: 10 μM one-dose
[12] = test system: DU-145; test: NCI60 antitumor screening; conditions: 10 μM one-dose
[13] = test system: SW-620; test: NCI60 antitumor screening; conditions: 10 μM one-dose
[14] = test system: OVCAR-5; test: NCI60 antitumor screening; conditions: 10 μM one-dose
[15] = test system: NCI-H322M; test: NCI60 antitumor screening; conditions: 10 μM one-dose
[16] = test system: HOP-92; test: NCI60 antitumor screening; conditions: 10 μM one-dose
[17] = test system: MALME-3M; test: NCI60 antitumor screening; conditions: 10 μM one-dose
[18] = test system: RPMI-8226; test: NCI60 antitumor screening; conditions: 10 μM one-dose
[19] = test system: ACHN; test: NCI60 antitumor screening; conditions: 10 μM one-dose
[20] = test system: HOP-62; test: NCI60 antitumor screening; conditions: 10 μM one-dose
[21] = test system: IGROV1; test: NCI60 antitumor screening; conditions: 10 μM one-dose
[22] = test system: CAKI-1; test: NCI60 antitumor screening; conditions: 10 μM one-dose
[23] = test system: SN12C; test: NCI60 antitumor screening; conditions: 10 μM one-dose
[24] = test system: SNB-19; test: NCI60 antitumor screening; conditions: 10 μM one-dose
[25] = test system: TK-10; test: NCI60 antitumor screening; conditions: 10 μM one-dose
[26] = test system: NCI-H226; test: NCI60 antitumor screening; conditions: 10 μM one-dose
[27] = test system: HCT-15; test: NCI60 antitumor screening; conditions: 10 μM one-dose
[28] = test system: RXF 393; test: NCI60 antitumor screening; conditions: 10 μM one-dose
[29] = test system: NCI-H522; test: NCI60 antitumor screening; conditions: 10 μM one-dose
[30] = test system: T-47D; test: NCI60 antitumor screening; conditions: 10 μM one-dose
[31] = test system: SK-MEL-2; test: NCI60 antitumor screening; conditions: 10 μM one-dose
[32] = test system: SK-OV-3; test: NCI60 antitumor screening; conditions: 10 μM one-dose
[33] = test system: UACC-62; test: NCI60 antitumor screening; conditions: 10 μM one-dose
[34] = test system: UACC-257; test: NCI60 antitumor screening; conditions: 10 μM one-dose

Cc1ccc(CSc2nc(-c3ccc(F)cc3)c(C#N)c(N3CCOCC3)n2)cc1 [4d, 4-(4-Fluorophenyl)-2-((4-methylbenzyl)thio)-6-morpholinopyrimidine-5-carbonitrile]
GI% [1]: 11.76% | GI% [2]: 23.86% | GI% [3]: 10.06% | GI% [4]: 13.10% | GI% [5]: — (GI% < 10) | GI% [6]: 88.04% | GI% [7]: — (GI% < 10) | GI% [8]: — (GI% < 10) | GI% [9]: 48.85% | GI% ([9]; Table 1): — (GI value > 70%) | Mean GI% [10]: 14.01% | GI% [11]: — (GI% < 10) | GI% [12]: — (GI% < 10) | GI% [13]: — (GI% < 10) | GI% [14]: — (GI% < 10) | GI% [15]: — (GI% < 10) | GI% [16]: 34.62% | GI% [17]: 26.17% | GI% [18]: — (GI% < 10) | GI% [19]: 37.30% | GI% [20]: 36.77% | GI% ([20]; Table 1): — (GI value > 70%) | GI% [21]: — (GI% < 10) | GI% [22]: 44.00% | GI% [23]: — (GI% < 10) | GI% [24]: 44.48% | GI% [25]: — (GI% < 10) | GI% [26]: 21.35% | GI% ([26]; Table 1): — (GI value > 70%) | GI% [27]: — (GI% < 10) | GI% [28]: 48.96% | GI% ([28]; Table 1): — (GI value > 70%) | GI% [29]: 44.57% | GI% [30]: 12.46% | GI% [31]: — (GI% < 10) | GI% [32]: 11.69% | GI% [33]: 22.83% | GI% [34]: 17.42%

Reference: paper PMC10620772, “Design, synthesis, and biological evaluation of new pyrimidine-5-carbonitrile derivatives as novel anti-cancer, dual EGFR^WT/COX-2 inhibitors with docking studies” (RSC Advances, 2023)
